“And” between values parts separate entries of the source, which are not always exact repeats. Equal entries are not always repeated. “Also recorded” adds a separate entry of the source.
Experiments:
[1] = test system: advanced, refractory biliary cancer; assay: Phase II study: efficacy (RECIST 1.1, PFS, OS); format: in vivo, human; conditions: for Overall Survival / Progression-Free Survival: 200 mg weekly (text b31 gives months)
Description: This was a National Cancer Institute (NCI)/Cancer Therapy Evaluation Program (CTEP)-sponsored phase II, open label, multicenter trial led by The Ohio State University with the participation of Georgetown University and Case Western University (ClinicalTrials.gov NCT01425879, date of registration 08/27/2011). MK-2206 was provided by NCI/CTEP. The primary objective of this study was to determine the overall response rate (complete response and partial response) as defined by RECIST[17]. Tumor tissue samples were required from all patients prior to enrollment. Secondary objectives included overall survival (OS), progression-free survival (PFS), and the presence of any mutations in the pI3k/AKT pathway and the evaluation of toxicities related to MK-2206. The starting dose and schedule for MK-2206 was 200 mg given weekly in 28-day cycles without interruption. Treatment was administered on an outpatient basis. Two levels of dose reductions were planned (135 mg weekly and 90 mg weekly) with patients taken off the study for additional dose reductions. Radiologic assessment was done by computed tomography every 8 weeks and responses were measured according to RECIST 1.1[17]. Toxicities were defined by the NCI-Common Terminology Criteria of Adverse Events version 4.0.

[2] = Phase II study: toxicities (NCI-CTCAE v4.0); format: in vivo, human; conditions: 200 mg weekly, n = 8
Protocol: The starting dose and schedule for MK-2206 was 200 mg given weekly in 28-day cycles without interruption. Treatment was administered on an outpatient basis. Two levels of dose reductions were planned (135 mg weekly and 90 mg weekly) with patients taken off the study for additional dose reductions.
Radiologic assessment was done by computed tomography every 8 weeks and responses were measured according to RECIST 1.1[17]. Toxicities were defined by the NCI-Common Terminology Criteria of Adverse Events version 4.0.

CYP3A4 = conditions: cited from earlier work
[3] = design: method as in Fouladi et al. [23]; conditions: children with refractory malignancies, 9 subjects, 120 mg/m^2 weekly oral, first dose; ref Fouladi et al. [23]; cited from earlier work
human Akt (Akt-1) = conditions: cited from earlier work
P-glycoprotein = conditions: cited from earlier work

With `NC1(c2ccc(-c3nc4ccn5c(=O)[nH]nc5c4cc3-c3ccccc3)cc2)CCC1` [MK-2206] the “Median PFS” value ([1]; 8 patients, 200 mg weekly) was 1.7 months, the “best response for all patients” value ([1]; 8 patients, 200 mg weekly) was “stable disease” and the “median OS” value ([1]; 8 patients, 200 mg weekly) was 3.5 months. The objective response ([1]; 8 patients, 200 mg weekly) was “No patients had an objective response”, the “duration of stable disease” value ([1]; observed in two patients) was “exceeding 12 weeks” and the Best response ([1]; subject 1001, Intrahepatic, 200 mg weekly) was “Progressive disease”. The “Overall Survival” value ([1]; subject 1001, Intrahepatic) was 2.2, the “Progression-Free Survival” value ([1]; subject 1001, Intrahepatic) was 1.8 and the Best response ([1]; subject 1002, Intrahepatic, 200 mg weekly) was “Progressive disease”. The “Overall Survival” value ([1]; subject 1002, Intrahepatic) was 3.1, the “Progression-Free Survival” value ([1]; subject 1002, Intrahepatic) was 0.5 and the Best response ([1]; subject 1003, Intrahepatic, 200 mg weekly) was “Progressive disease”. The “Overall Survival” value ([1]; subject 1003, Intrahepatic) was 3.8, the “Progression-Free Survival” value ([1]; subject 1003, Intrahepatic) was 1.2 and the Best response ([1]; subject 1004, Intrahepatic, 200 mg weekly) was “Progressive disease”. The “Overall Survival” value ([1]; subject 1004, Intrahepatic) was 3.1, the “Progression-Free Survival” value ([1]; subject 1004, Intrahepatic) was 1.6 and the Best response ([1]; subject 1005, Intrahepatic, 200 mg weekly) was “Stable disease”. For the same compound, the “Overall Survival” value ([1]; subject 1005, Intrahepatic) was 20.2, the “Progression-Free Survival” value ([1]; subject 1005, Intrahepatic) was 3.4 and the Best response ([1]; subject 1007, Extrahepatic, 200 mg weekly) was “Progressive disease”. The “Overall Survival” value ([1]; subject 1007, Extrahepatic) was 6.7, the “Progression-Free Survival” value ([1]; subject 1007, Extrahepatic) was 6.6 and the Best response ([1]; subject 2006, Intrahepatic, 200 mg weekly) was “Progressive disease”. The “Overall Survival” value ([1]; subject 2006, Intrahepatic) was 2.8, the “Progression-Free Survival” value ([1]; subject 2006, Intrahepatic) was 1.2 and the Best response ([1]; subject 2008, Extrahepatic, 200 mg weekly) was “Stable disease”. For the same compound, the “Overall Survival” value ([1]; subject 2008, Extrahepatic) was 6.1, the “Progression-Free Survival” value ([1]; subject 2008, Extrahepatic) was 5.6 and the “Anemia, All toxicities (%)” value [2] was 12.5%. The “Anemia, Grade 1 (%)” value [2] was 12.5%, the “Constipation, All toxicities (%)” value [2] was 12.5% and the “Constipation, Grade 1 (%)” value [2] was 12.5%. The “Diarrhea, All toxicities (%)” value [2] was 50%, the “Diarrhea, Grade 1 (%)” value [2] was 25% and the “Diarrhea, Grade 2 (%)” value [2] was 12.5%. The “Diarrhea, Grade 3 (%)” value [2] was 12.5%, the “Dry Mouth, All toxicities (%)” value [2] was 25% and the “Dry Mouth, Grade 1 (%)” value [2] was 25%. The “Dry Skin, All toxicities (%)” value [2] was 38%, the “Dry Skin, Grade 1 (%)” value [2] was 25% and the “Dry Skin, Grade 2 (%)” value [2] was 12.5%. For the same compound, the “Fatigue, All toxicities (%)” value [2] was 50%, the “Fatigue, Grade 1 (%)” value [2] was 25% and the “Fatigue, Grade 2 (%)” value [2] was 25%. The “Fever, Grade 1 (%)” value [2] was 25%, the “Hand Foot Syndrome, All toxicities (%)” value [2] was 38% and the “Hand Foot Syndrome, Grade 1 (%)” value [2] was 25%. The “Hand Foot Syndrome, Grade 2 (%)” value [2] was 12.5%, the “Hyponatremia, All toxicities (%)” value [2] was 12.5% and the “Hypophosphatemia, All toxicities (%)” value [2] was 25%. For the same compound, the “Hypophosphatemia, Grade 2 (%)” value [2] was 25%, the “Leukopenia, All toxicities (%)” value [2] was 12.5% and the “Leukopenia, Grade 1 (%)” value [2] was 12.5%. For the same compound, the “Lymphopenia, All toxicities (%)” value [2] was 75%, the “Lymphopenia, Grade 1 (%)” value [2] was 25% and the “Lymphopenia, Grade 2 (%)” value [2] was 12.5%. For the same compound, the “Lymphopenia, Grade 3 (%)” value [2] was 37.5%, the “Macular Rash, All toxicities (%)” value [2] was 63% and the “Macular Rash, Grade 1 (%)” value [2] was 12.5%. The “Macular Rash, Grade 2 (%)” value [2] was 12.5%, the “Macular Rash, Grade 3 (%)” value [2] was 38% and the “Mucositis, All toxicities (%)” value [2] was 38%. For the same compound, the “Mucositis, Grade 1 (%)” value [2] was 38%, the “Nausea, All toxicities (%)” value [2] was 38% and the “Nausea, Grade 1 (%)” value [2] was 38%. For the same compound, the “Thrombocytopenia, All toxicities (%)” value [2] was 25%, the “Thrombocytopenia, Grade 1 (%)” value [2] was 12.5% and the “Thrombocytopenia, Grade 3 (%)” value [2] was 12.5%. The “Vomiting, All toxicities (%)” value [2] was 50%, the “Vomiting, Grade 1 (%)” value [2] was 50% and the “overall toxicity / tolerability” value [2] was “mild and tolerable; also recorded: mostly grade 1 or 2 and were reversible”. The “Hyponatremia, Grade 4 (%)” value ([2]; felt to be unrelated to MK-2206) was 12.5%, the “metabolism in human microsomes” value (CYP3A4) was “converted to oxidative metabolites in human microsomes via CYP3A4” and the “CL/F/m^2 (BSA-adjusted CL/F)” value [3] was 18.0 +/− 18.8 L/hr/m^2 and 18.0±18.8 L/hr/m^2. The Cmax [3] was 171 ng/mL, the Half life [3] was 44.2 ± 23.3 h and the Tmax [3] was 5.1 ± 1.6 h. The “Vz/F/m^2” value [3] was 1100±1020 L/m^2, the IC50 (human Akt (Akt-1)) was 8 nM and the P-glycoprotein substrate (P-glycoprotein) was “substrate of P-glycoprotein”.

— paper PMC4894406, “Results of an abbreviated phase-II study with the Akt Inhibitor MK-2206 in Patients with Advanced Biliary Cancer” (Scientific Reports, 2015)
